In the first test the test system is soluble epoxide hydrolase (sEH). Kind of test: Fluorescent assay for mouse and human soluble epoxide hydrolase (CMNPC substrate). The test is classed as biochemical. As to conditions: Conc of I 50 nM. An excerpt:
Fluorescent Assay for Mouse and Human Soluble Epoxide Hydrolase Recombinant mouse sEH (MsEH) and human sEH (HsEH) were produced in a baculovirus expression system as previously reported. Grant et al., J. Biol. Chem., 268:17628-17633 (1993); Beetham et al., Arch. Biochem. Biophys., 305:197-201 (1993). The expressed proteins were purified from cell lysate by affinity chromatography. Wixtrom et al., Anal. […] Protein concentration was quantified using the Pierce BCA assay using bovine serum albumin as the calibrating standard. […] Solutions: Bis/Tris HCl 25 mM 7.0 containing 0.1 mg/mL of BSA (buffer […] at 0.25 mM in DMSO. Mother solution of enzyme in buffer A (Mouse sEH at 6 μg/mL and Human sEH at 5 μg/mL). Inhibitor dissolved in DMSO at the appropriate concentration. Protocol: In a black 96 well plate, fill all the wells with 150 μL of buffer A. Add 2 μL of DMSO in well A2 and A3, and then add 2 μL of inhibitor solution in A1 and A4 through A12. Add 150 μL of buffer A in a row A, then mix several time and transfer 150 μL to row B. Repeat this operation up to row H. The 150 μL removed from row H go to the trash. Add 20 μL of buffer A in column 1 and 2, then add 20 μL of enzyme solution to column 3 to 12. Incubate the plate for 5 minutes in the plate reader at 30° C. During incubation prepare the working solution of substrate by mixing 3.68 mL of buffer A (4×0.920 mL) with 266 μL (2×133 μL) of substrate solution). At t=0, add 30 μL of working substrate solution with multi-channel pipette labeled “Briggs 303” and start the reading ([S]final: 5 μM). Read with ex: 330 nm (20 nm) and em: 465 nm (20 nm) every 30 second for 10 minutes. The velocities are used to analyze and calculate the IC50s.
In the case of `CC(C)N1CCN(C(=O)c2ccc(NC(=O)Nc3ccc(OC(F)(F)F)cc3)cc2)CC1` [Compound 32, 1-[4-(4-Isopropyl-piperazine-1-carbonyl)-phenyl]-3-(4-trifluoromethoxy-phenyl)-urea], the “% I” value is listed as 92%.
Still for that read-out and setting: the result for `O=C(Nc1ccc(Cl)cc1)Nc1ccc(C(=O)N2CCOCC2)c(F)c1` [Compound 14, 1-(4-Chloro-phenyl)-3-[3-fluoro-4-(morpholine-4-carbonyl)-phenyl]-urea] reads 74%.
For the compound `CN1CCN(C(=O)c2ccc(NC(=O)Nc3ccc(C(F)(F)F)cc3)cc2)CC1` [Compound 18, 1-[4-(4-Methyl-piperazine-1-carbonyl)-phenyl]-3-(4-trifluoromethyl-phenyl)-urea], the “% I” value was 75%.
For `O=C(Nc1ccc(OC(F)(F)F)cc1)Nc1ccc(C(=O)N2CCOCC2)cc1` [Compound 26, 1-[4-(Morpholine-4-carbonyl)-phenyl]-3-(4-trifluoromethoxy-phenyl)-urea], the “% I” value amounted to 88%.
Same read-out and setting: the result for `O=C(Nc1ccc(C(=O)N2CCOCC2)cc1)Nc1ccc(C(F)(F)F)cc1` [Compound 17, 1-[4-(Morpholine-4-carbonyl)-phenyl]-3-(4-trifluoromethyl-phenyl)-urea] reads 89%; that for `O=C(Nc1ccc(C(F)(F)F)cc1)Nc1ccc(C(=O)N2CCOCC2)c(F)c1` [Compound 22, 1-[3-Fluoro-4-(morpholine-4-carbonyl)-phenyl]-3-(4-trifluoromethyl-phenyl)-urea], 97%; that for `CC(C)N1CCN(C(=O)c2ccc(NC(=O)Nc3ccc(C(F)(F)F)cc3)cc2)CC1` [Compound 34, 1-[4-(4-Isopropyl-piperazine-1-carbonyl)-phenyl]-3-(4-trifluoromethyl-phenyl)-urea], 93%.

Staying with this test, now noted: Conc of I 500 nM.
In the case of `CN1CCN(C(=O)c2cc(NC(=O)Nc3ccc(C(F)(F)F)cc3)ccc2F)CC1` [Compound 33, 1-[4-Fluoro-3-(4-methyl-piperazine-1-carbonyl)-phenyl]-3-(4-trifluoromethyl-phenyl)-urea], the “% I” value came out at 95%.
For `O=C(NC1CCC(C(=O)N2CCC(C(=O)O)CC2)CC1)NC12CC3CC(CC(C3)C1)C2` (stereo not shown) [Compound 21, 1-[4-(3-Adamantan-1-yl-ureido)-cyclohexanecarbonyl]-piperidine-4-carboxylic acid], the “% I” value was 76%.
On the same count and under the same terms, for `CN1CCN(C(=O)c2ccc(NC(=O)Nc3ccc(F)cc3)cc2)CC1` [Compound 24, 1-(4-Fluoro-phenyl)-3-[4-(4-methyl-piperazine-1-carbonyl)-phenyl]-urea] the value was 64%.
On the same count and under the same terms, for `O=C(Nc1ccc(Cl)cc1)Nc1cccc(C(=O)N2CCC(N3CCOCC3)CC2)c1` [Compound 10, 1-(4-Chloro-phenyl)-3-[3-(4-morpholin-4-yl-piperidine-1-carbonyl)-phenyl]-urea] the value was 87%; for `O=C(Nc1ccc(Cl)cc1)Nc1ccc(C(=O)N2CCOCC2)cc1` [Compound 2, 1-(4-Chloro-phenyl)-3-[4-(morpholine-4-carbonyl)-phenyl]-urea], 94%.
With `CC(C)N1CCN(C(=O)c2cccc(NC(=O)Nc3ccc(C(F)(F)F)cc3)c2)CC1` [Compound 35, 1-[3-(4-Isopropyl-piperazine-1-carbonyl)-phenyl]-3-(4-trifluoromethyl-phenyl)-urea], the “% I” value is 92%.

Still in this test, the particulars now being: Conc of I 5000 nM.
As to `O=C(Nc1cccc(C(=O)N2CCC(C(=O)O)CC2)c1)NC12CC3CC(CC(C3)C1)C2` [Compound 13, 1-[3-(3-Adamantan-1-yl-ureido)-benzoyl]-piperidine-4-carboxylic acid], the “% I” value was 99%.
Take `O=C(Nc1ccccc1)Nc1ccc(C(=O)N2CCOCC2)cc1` [Compound 1, 1-[4-(Morpholine-4-carbonyl)-phenyl]-3-phenyl-urea]: the “% I” value worked out at 97%.
Same read-out and setting: the result for `O=C(Nc1ccc(Cl)cc1)Nc1ccc(C(=O)N2CCC(N3CCOCC3)CC2)cc1` [Compound 8, 1-(4-Chloro-phenyl)-3-[4-(4-morpholin-4-yl-piperidine-1-carbonyl)-phenyl]-urea] reads 96%.

These data come from patent publication US20080032978A1, “SOLUBLE EPOXIDE HYDROLASE INHIBITORS” (Arete Therapeutics, Inc., priority 2006, published 2008).
